How the values were obtained:
Type in all cases: cell-based
[1] = test system: human colon cancer cells (LS174T); test: LS174T growth inhibition; settings: FIG. 5 and FIG. 6
[2] = test system: human hepatic carcinoma cells (HepG2); test: HepG2 Tumor Cell Proliferation Assay; settings: FIG. 3 and FIG. 4
Method: (§1) HepG2 cells (5,000 per well in 90% EMEM medium plus 10% Fetal Bovine Serum [FBS]) were pre-incubated in a black clear bottom 98-well plate in an atmosphere of 5% CO2 at 37° C. for 24 hours. Stock solutions of compounds in DMSO were diluted using a buffer and dilutions were added to each well. […] The final assay pH was 7.4. The cells were incubated in EMEM medium for an additional 72 hours. Alamar Blue (10% of culture volume) was added and the plate was incubated for an additional 12 hours. Fluorescence intensity was measured using a Gemini plate reader with excitation at 530 nm and emission at 590 nm. A decrease of 50 percent or more (≧50%) in fluorescence intensity relative to vehicle treated controls is an indication of significant anti-cancer activity.

[3] = test system: human head and neck squamous cell carcinoma cells (SCC 103); test: SCC103 Tumor Cell Proliferation Assay; settings: SCC 103 cells; FIG. 7 and FIG. 8
Method: as §1, with “SCC 103” for “HepG2”, “(15,000” for “(5,000”, “96-well” for “98-well”

[4] = test system: human melanoma cells (A375); settings: FIG. 1 and FIG. 2
Method: as §1, with “A375 cells” for “HepG2 cells”, “90% RPMI-1640” for “90% EMEM medium”, “bottom 96-well” for “bottom 98-well”, “in RPMI-1 640 with each compound” for “in EMEM medium”, “72 to 168” for “72”, “Blue” for “Blue (10% of culture volume)”
TGI (Total Growth Inhibition): Test compound concentration where the increase in number or mass of cells after 72 to 168 hours is reduced to equal that at time t=0.

Measured: growth inhibitory effect compared to Bexarotene

C=C(c1ccc(CN2C(=O)CCNC2=O)cc1)c1cc2c(cc1C)C(C)(C)CCC2(C)C [Example 13, 3-{4-[1-(3,5,5,8,8-Pentamethyl-5,6,7,8-tetrahydro-naphthalen-2-yl)-vinyl]-benzyl}-dihydro-pyrimidine-2,4-dione]
enhanced activity: all assays above

C=C(c1ccc(CN2C(=O)CN(C)C2=O)cc1)c1cc2c(cc1C)C(C)(C)CCC2(C)C [Example 11, 1-Methyl-3-{4-[1-(3,5,5,8,8-pentamethyl-5,6,7,8-tetrahydro-naphthalen-2-yl)-vinyl]-benzyl}-imidazolidine-2,4-dione]
enhanced activity: all assays above

C=C(c1ccc(CN2C(=O)NC(C)(C)C2=O)cc1)c1cc2c(cc1C)C(C)(C)CCC2(C)C [Example 12, 5,5-Dimethyl-3-{4-[1-(3,5,5,8,8-pentamethyl-5,6,7,8-tetrahydro-naphthalen-2-yl)-vinyl]-benzyl}-imidazolidine-2,4-dione]
enhanced activity: all assays above

C=C(c1ccc(CN2C(=O)CSC2=O)cc1)c1cc2c(cc1C)C(C)(C)CCC2(C)C [Example 10, 3-{4-[1-(3,5,5,8,8-Pentamethyl-5,6,7,8-tetrahydro-naphthalen-2-yl)-vinyl]-benzyl}-thiazolidine-2,4-dione]
enhanced activity: [3] | [4]

C=C(c1ccc(CC(C(N)=O)C(N)=O)cc1)c1cc2c(cc1C)C(C)(C)CCC2(C)C [Example 8, 2-{4-[1-(3,5,5,8,8-Pentamethyl-5,6,7,8-tetrahydro-naphthalen-2-yl)-vinyl]-benzyl}-malonamide]
enhanced activity: all assays above

C=C(c1ccc(CN2C(=O)N(C)C(C)(C)C2=O)cc1)c1cc2c(cc1C)C(C)(C)CCC2(C)C [Example 14, 1,5,5-Trimethyl-3-{4-[1-(3,5,5,8,8-pentamethyl-5,6,7,8-tetrahydro-naphthalen-2-yl)-vinyl]-benzyl}-imidazolidine-2,4-dione]
enhanced activity: [1] | [3] | [4]
